We go through 1 compound from EP0399422A1, “Benzocycloalkane derivatives and production thereof” (Takeda Chemical Industries, Ltd., priority 1989, dated 1990).

For experiment [1], the system named is Acyl-CoA:cholesterol acyl transferase (ACAT). The experiment is described as follows: Acyl-CoA:cholesterol acyl transferase (ACAT) inhibiting activity. The following applies: inhibition of labeled cholesterol ester formation at 10⁻⁶ M of the test compounds; small intestine mucosa microsome fraction. It counts as biochemical, male Sprague-Dawley rats. More on the design: tested at 1 µM. As for the experimental part: An ACAT enzyme preparation was obtained from the small intestine mucosa microsome fraction from male Sprague-Dawley rats of 6 weeks of age fasted for 20 hours, as described by Heider et al. [Journal of Lipid Research, 24, 1127 (1982)].
The ACAT activity was calculated by determining the yield of a labeled cholesterol ester from [1-¹⁴C]oleoyl-CoA and endogenous cholesterol using the method of Helgerud et al. [Journal of Lipid Research, 22, 271 (1981)].
The inhibition percentages of the labeled cholesterol ester formation at 10⁻⁶ M of the test compounds are shown in Table 1 as ACAT inhibiting activity indices.

Experiment [2] relates to cholesterol-loaded rats. Nature of the experiment: Plasma cholesterol lowering activity in cholesterol-loaded rats. Format: in vivo, Male Sprague-Dawley rats. The following applies: 1% cholesterol diet containing 0.01% test compound for 4 days; dose 8.5 mg/kg/day; control group 266 + 46; p<0.01. As for the experimental part: Male Sprague-Dawley rats of 7 weeks of age were fed with a 1% cholesterol diet (containing 0.5% cholic acid and 5% olive oil) for 3 days, then grouped by plasma cholesterol level and further fed with the same diet containing 0.01% test compound for 4 days. Blood samples were collected at 8:30 a.m. to 10:00 a.m. while the animals were satiated, and plasma cholesterol levels were determined enzymatically. Intakes of the compound were calculated from food intake data.

Molecules are shown by their SMILES. Marks after values point to notes of the source that are not given here.

Take `O=C(Nc1ccc(F)cc1F)N(Cc1ccccc1Cl)C1Cc2ccccc2C1` [Example 1, N-(2-chlorobenzyl)-N′-(2,4-difluorophenyl)-N-(2-indanyl)urea]: the “% ACAT inhibition” value in experiment [1] came to 84%. For the same compound, the Plasma cholesterol in experiment [2] is 128 + 47* mg/dl.
